Series [1] deals with mice carrying the Fli1 deletion. Put plainly: Bleomycin-induced lung fibrosis in mice carrying the Fli1 deletion. In kind it is in vivo. The conditions noted are these: 50 mg/kg on day 9, 12, 15 after intra-tracheal bleomycin 0.4 mg/kg; sacrifice day 21. An excerpt: Bleomycin-induced lung fibrosis is the most frequently used rodent model for lung fibrosis, and inflammatory and fibrotic events similar to those seen in human pulmonary fibrosis (Am J Respir Cell Mol Biol. 2013 Aug; 49(2): 167-179; https://www.atsjournals.org/doi/full/10.1165/rcmb.2013-0094TR; PMID: 23526222). Systemic sclerosis (SSc) is manifested by vasculopathy, immune dysregulation and fibrosis of the skin and certain internal organs, especially lungs (Nat Commun. 2014; 5: 5797.; https://www.nature.com/articles/ncomms6797; PMID: 25504335). Friend leukemia integration 1 (Fli1) is a potent repressor of the type I collagen gene. […] Bleomycin was administered intra-tracheally to mice (0.4 mg/kg) and no drug was given during the inflammatory phase (8 days). […] IRS-1 is a component of the insulin signaling pathway which is involved in the increased collagen production by cells carrying the Fli1 deletion.

Series [2] deals with SARS-CoV-2. Kind of series: microbe, parasite or virus in culture. The format is cell-based. The conditions noted are these: read-out: IC50 based on SARS-CoV-2 viral loads in culture supernatant.
For series [3], the system named is SARS-CoV-2. Put plainly: microbe, parasite or virus in culture. The format is cell-based. The conditions noted are these: read-out: IC50 based on dose response curve by cytopathic effect (CPE). (Cytopathic effects are the visible damage that an infection or toxin causes in cultured cells.)
The test system of series [4] is SARS-CoV-2. Kind of series: microbe, parasite or virus in culture. The conditions noted are these: for EC50: read-out: Median Effective Dose. The format is cell-based.
Series [5] deals with SARS-CoV-2. Kind of series: microbe, parasite or virus in culture. The format is cell-based. The conditions noted are these: for EC50: read-out: Median Effective Dose. The source holds these as a separate data set.
The target in another series is T1, BRD4-1 (Homo sapiens, UniProt O60885).
T1 construct: BRD4-1
Kind of series: BRD4-1 in vitro inhibition. The format is binding.

The target of the next series is T2, BRD4-2 (Homo sapiens, UniProt O60885).
T2 construct: BRD4-2
Kind of series: BRD4-2 in vitro inhibition. In kind it is binding.

For another series, the target named is PI3K beta (Homo sapiens, UniProt P42338). Kind of series: PI3K beta in vitro inhibition. The format is biochemical.
PI3K beta, sequence (P42338 whole entry): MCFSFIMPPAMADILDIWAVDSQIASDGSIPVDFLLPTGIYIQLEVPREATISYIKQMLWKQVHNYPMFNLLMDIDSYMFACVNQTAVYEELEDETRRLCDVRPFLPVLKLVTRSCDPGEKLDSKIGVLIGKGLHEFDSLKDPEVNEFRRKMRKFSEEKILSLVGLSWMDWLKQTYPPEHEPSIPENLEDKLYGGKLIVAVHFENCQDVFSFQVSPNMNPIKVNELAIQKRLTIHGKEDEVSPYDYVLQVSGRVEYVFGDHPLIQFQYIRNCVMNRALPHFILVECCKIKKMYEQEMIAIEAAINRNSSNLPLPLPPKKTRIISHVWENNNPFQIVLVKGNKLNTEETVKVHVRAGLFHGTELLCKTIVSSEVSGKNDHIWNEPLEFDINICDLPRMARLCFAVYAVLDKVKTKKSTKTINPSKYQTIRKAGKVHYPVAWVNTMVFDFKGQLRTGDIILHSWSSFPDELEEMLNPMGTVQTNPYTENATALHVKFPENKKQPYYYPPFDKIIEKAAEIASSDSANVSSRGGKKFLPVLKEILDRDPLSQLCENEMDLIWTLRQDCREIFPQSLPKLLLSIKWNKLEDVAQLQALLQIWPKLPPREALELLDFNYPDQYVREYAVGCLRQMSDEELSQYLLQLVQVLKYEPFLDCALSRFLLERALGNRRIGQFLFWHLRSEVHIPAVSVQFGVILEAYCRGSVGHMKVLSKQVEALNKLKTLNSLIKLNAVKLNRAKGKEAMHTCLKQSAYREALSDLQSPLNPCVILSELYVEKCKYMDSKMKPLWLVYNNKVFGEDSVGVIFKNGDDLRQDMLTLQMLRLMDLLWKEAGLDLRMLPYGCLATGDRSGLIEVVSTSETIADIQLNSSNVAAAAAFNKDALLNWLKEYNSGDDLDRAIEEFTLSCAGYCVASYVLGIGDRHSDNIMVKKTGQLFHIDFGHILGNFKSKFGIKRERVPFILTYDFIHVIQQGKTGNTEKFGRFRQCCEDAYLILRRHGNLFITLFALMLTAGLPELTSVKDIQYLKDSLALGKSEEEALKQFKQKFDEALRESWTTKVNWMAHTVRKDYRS
PI3K beta, sequence (P27986 whole entry partner): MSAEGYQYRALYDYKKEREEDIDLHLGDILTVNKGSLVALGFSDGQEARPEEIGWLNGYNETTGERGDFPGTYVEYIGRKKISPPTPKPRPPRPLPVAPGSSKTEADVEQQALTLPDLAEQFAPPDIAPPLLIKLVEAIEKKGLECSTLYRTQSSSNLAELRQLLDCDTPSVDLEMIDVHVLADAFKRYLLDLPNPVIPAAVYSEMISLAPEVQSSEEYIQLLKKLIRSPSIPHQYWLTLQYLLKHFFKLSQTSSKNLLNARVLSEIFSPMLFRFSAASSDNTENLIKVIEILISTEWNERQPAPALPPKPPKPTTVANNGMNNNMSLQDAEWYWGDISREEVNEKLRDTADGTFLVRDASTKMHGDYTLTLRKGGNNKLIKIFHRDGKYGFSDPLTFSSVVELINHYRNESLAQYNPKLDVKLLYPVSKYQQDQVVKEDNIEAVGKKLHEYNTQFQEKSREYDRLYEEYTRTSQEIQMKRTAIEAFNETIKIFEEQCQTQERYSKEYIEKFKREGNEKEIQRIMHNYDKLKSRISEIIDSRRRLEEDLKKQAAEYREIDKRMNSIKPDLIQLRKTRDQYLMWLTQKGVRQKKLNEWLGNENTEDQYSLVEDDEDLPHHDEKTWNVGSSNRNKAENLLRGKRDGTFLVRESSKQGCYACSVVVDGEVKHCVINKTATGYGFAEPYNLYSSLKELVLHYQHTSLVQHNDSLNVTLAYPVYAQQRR
A further series has as its target PI3K gamma (Homo sapiens, UniProt P48736). Put plainly: PI3K gamma in vitro inhibition. The format is biochemical. The conditions noted are these: IC50 inhibition PI3K gamma. Put shortly:
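Compound titrated in a standard in vitro kinase inhibition assay; IC50 calculated.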

The target in the next series is BTK (Homo sapiens, UniProt Q06187). Kind of series: BTK in vitro inhibition. In kind it is biochemical. As to the method:
(§1) The kinase or bromodomain inhibitory activity of a compound of the invention can be determined by routine methods known to the skilled artisan without undue experimentation, or by procuring relevant analysis by a commercial vendor offering such services. […] In vivo, PI3K inhibition can be determined from target tissue biopsies by standard tissue processing in which cells are disrupted and Western Blot analysis is performed to determine the presence or absence of pAKT (substrate of PI3K) relative to a control sample. PI3K inhibition assays and BTK inhibition assays are known in the art and can be procured commercially through vendors such as Reaction Biology (Malvern, PA). The activity of a compound of the invention as an inhibitor of a bromodomain-containing protein, such as a BET protein, including BRD2, BRD3, BRD4, and/or BRDT, or an isoform or mutant thereof, may be determined in vitro, in vivo, or in a cell line. In vitro assays include assays that determine inhibition of bromodomain-containing proteins. Alternatively, inhibitor binding may be determined by running a competition experiment where a provided compound is incubated with a bromodomain-containing protein, such as a BET protein bound to known ligands, labeled or unlabeled. In vitro bromodomain inhibition assays can be performed using Alpha Screen Technology (Perkin Elmer Life and Analytical Sciences, Shelton, CT). In vivo bromodomain inhibition can be determined indirectly by evaluating the amount of a protein whose gene transcription is influenced or controlled by the bromodomain protein, for example, MYCN protein transcription is controlled by BRD4 (J.E. Delmore et al., Cell 2011, 146, 904-917; A. Puissant, Cancer Discov. 2013, 3, 308-323).
(§2) IC50 inhibition data against the indicated targets were determined for compounds of the invention using standard in vitro assays (Tables 8 and 9).

Another series has as its target BTK C481S (Homo sapiens, UniProt Q06187, C481S). Put plainly: BTK C481S in vitro inhibition. In kind it is biochemical. As for the experimental part:
as §1, §2

Another series deals with mTOR (Homo sapiens, UniProt P42345). Kind of series: mTOR in vitro inhibition. The format is biochemical. As to the method: as §1, §2
The subject of series [6] is SARS-CoV-2. The conditions noted are these: at effective anti-viral concentrations; Hela-ACE2 cells.
In series [7] the test system is SARS-CoV-2. Kind of series: microbe, parasite or virus in culture. The conditions noted are these: for IC50: Severe acute respiratory syndrome coronavirus 2, HeLa-ACE2, read-out: IC50 inhibition of SARS-CoV-2 (viral plaques).
The test system of series [8] is SARS-CoV-2. Kind of series: SARS-CoV-2 viral load in culture supernatant (RT-QPCR), UNCN1T cells.
In series [9] the test system is SARS-CoV-2. Kind of series: Cytopathic effect (CPE), CellTiter-Glo, SARS-CoV-2 infected UNCN1T cells. The conditions noted are these: read-out: IC50 based on dose response curve by cytopathic effect (CPE), 24 hrs post-infection.
Setting [10] is: Severe acute respiratory syndrome coronavirus 2, 24 h.
The mark [11] stands for this setting: Severe acute respiratory syndrome coronavirus 2, 48 h.
Where [12] appears, read: read-out: IC50 based on SARS-CoV-2 viral loads in culture supernatant, 24 hrs post-infection.
Where [13] appears, read: read-out: IC50 based on SARS-CoV-2 viral loads in culture supernatant, 48 hrs post-infection.

Where two headings read alike, the source gives them in different places. Some results are limits rather than exact numbers.

This note sets out measurements from US20230165873A1, “Methods of Use for Single Molecule Compounds Providing Multi-Target Inhibition to Treat Covid 19” (priority 2020, published 2023).

PI3K gamma, sequence (P48736 whole entry): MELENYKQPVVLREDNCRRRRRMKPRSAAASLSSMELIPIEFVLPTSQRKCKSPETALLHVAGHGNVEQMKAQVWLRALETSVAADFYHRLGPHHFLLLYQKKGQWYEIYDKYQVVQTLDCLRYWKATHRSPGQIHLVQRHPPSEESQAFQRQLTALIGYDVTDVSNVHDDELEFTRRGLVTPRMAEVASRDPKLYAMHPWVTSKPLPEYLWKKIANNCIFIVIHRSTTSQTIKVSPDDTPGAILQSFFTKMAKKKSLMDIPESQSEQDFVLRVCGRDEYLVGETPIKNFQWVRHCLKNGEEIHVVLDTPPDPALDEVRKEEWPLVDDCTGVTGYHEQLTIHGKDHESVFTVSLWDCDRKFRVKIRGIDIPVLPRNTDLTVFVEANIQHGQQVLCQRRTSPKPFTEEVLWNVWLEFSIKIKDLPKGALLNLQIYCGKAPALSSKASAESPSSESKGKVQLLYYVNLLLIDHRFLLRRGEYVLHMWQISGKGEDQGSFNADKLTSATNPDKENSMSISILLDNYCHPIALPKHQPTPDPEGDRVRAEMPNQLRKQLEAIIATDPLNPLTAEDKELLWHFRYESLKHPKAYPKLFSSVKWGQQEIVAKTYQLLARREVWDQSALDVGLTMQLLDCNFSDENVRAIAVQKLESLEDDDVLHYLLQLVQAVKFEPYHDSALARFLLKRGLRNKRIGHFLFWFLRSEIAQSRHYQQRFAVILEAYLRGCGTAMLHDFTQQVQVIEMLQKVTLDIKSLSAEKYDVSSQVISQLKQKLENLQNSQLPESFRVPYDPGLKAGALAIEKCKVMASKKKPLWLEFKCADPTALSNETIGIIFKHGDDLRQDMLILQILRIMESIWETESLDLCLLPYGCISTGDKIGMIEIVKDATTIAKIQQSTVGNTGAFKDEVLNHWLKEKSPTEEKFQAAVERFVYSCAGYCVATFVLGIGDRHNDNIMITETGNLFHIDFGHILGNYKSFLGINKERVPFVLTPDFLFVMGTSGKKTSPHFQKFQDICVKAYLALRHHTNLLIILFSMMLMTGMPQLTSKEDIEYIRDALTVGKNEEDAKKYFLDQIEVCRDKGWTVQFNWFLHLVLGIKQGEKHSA
BTK, sequence (Q06187 whole entry): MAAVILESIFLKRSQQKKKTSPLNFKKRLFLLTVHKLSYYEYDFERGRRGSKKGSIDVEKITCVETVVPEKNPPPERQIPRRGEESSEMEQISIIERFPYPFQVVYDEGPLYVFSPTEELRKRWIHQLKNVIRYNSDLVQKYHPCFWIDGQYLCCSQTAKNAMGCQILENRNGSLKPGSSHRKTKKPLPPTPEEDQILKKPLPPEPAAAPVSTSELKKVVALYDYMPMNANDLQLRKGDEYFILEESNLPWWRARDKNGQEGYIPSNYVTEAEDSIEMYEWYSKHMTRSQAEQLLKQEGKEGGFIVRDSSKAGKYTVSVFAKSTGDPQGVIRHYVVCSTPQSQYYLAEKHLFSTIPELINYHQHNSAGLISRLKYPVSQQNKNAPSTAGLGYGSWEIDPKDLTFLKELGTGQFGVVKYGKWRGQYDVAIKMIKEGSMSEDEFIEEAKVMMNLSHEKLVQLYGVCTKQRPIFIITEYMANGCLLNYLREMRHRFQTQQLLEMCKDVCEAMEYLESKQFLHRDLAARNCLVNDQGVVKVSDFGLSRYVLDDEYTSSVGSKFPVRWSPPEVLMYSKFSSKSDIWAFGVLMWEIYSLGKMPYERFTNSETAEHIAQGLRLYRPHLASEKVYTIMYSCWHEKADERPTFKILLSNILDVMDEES
BTK C481S, sequence (Q06187 whole entry C481S): as the sequence (Q06187 whole entry) above, with C481S counted along it

On to `O=c1cc(N2CCOCC2)oc2c(-c3ccc4c(c3)OCCO4)csc12` [Compound 0], for which, in series [1], the “prevention of development of fibrosis (Masson Trichrome staining, tissue collagen content, Ashcroft score)” value is given as “remarkably effective in preventing the development of fibrosis”. In addition, the IC50 was 1020 nM with SARS-CoV-2 [2] (setting [10]); 3220 nM in the series with SARS-CoV-2 [2] (setting [11]); 1800 nM in the series with SARS-CoV-2 [3] (setting [10]); 4400 nM with SARS-CoV-2 [3] (setting [11]); below 500 nM against BRD4-1; 500 to 1000 nM against BRD4-2. The IC50 was below 500 nM on PI3K beta; below 500 nM against PI3K gamma; 10000 to 45000 nM against BTK; 10000 to 45000 nM on BTK C481S; below 500 nM at mTOR; 900 nM with SARS-CoV-2 [7]. Also, the IC50 worked out at 1520 nM in the series on SARS-CoV-2 [8] (setting [12]), 1580 nM in the series with SARS-CoV-2 [8] (setting [13]) and 250 nM with SARS-CoV-2 [9]. In addition, the EC50 in the series with SARS-CoV-2 [4] (Severe acute respiratory syndrome coronavirus 2, VERO STAT1 KO Cells, 24 hours post-infection) was 2620 nM; with SARS-CoV-2 [5] (Severe acute respiratory syndrome coronavirus 2, UNCN1T Cells, 24 hours post-infection), 1840 nM. In the series on SARS-CoV-2 [6], the cellular cytotoxicity result is “no cellular cytotoxicity is noted”. The same compound registered an inhibition at 2.4 µM in the series on SARS-CoV-2 [7] (Severe acute respiratory syndrome coronavirus 2, HeLa-ACE2) of 94%.
For `CCC(CC)COC(=O)[C@H](C)N[P@](=O)(OC[C@H]1O[C@@](C#N)(c2ccc3c(N)ncnn23)[C@H](O)[C@@H]1O)Oc1ccccc1` [Remdesivir, reference compound], the IC50 in the series with SARS-CoV-2 [2] (setting [10]) was determined as 1030 nM; with SARS-CoV-2 [2] (setting [11]) it was 760 nM; in the series with SARS-CoV-2 [3] (setting [10]), 2240 nM; with SARS-CoV-2 [3] (setting [11]), 4600 nM; in the series with SARS-CoV-2 [7] it was 100 nM; with SARS-CoV-2 [8] (setting [12]), 1060 nM. Further, the results for the IC50 in the series with SARS-CoV-2 [8] (setting [13]) and in the series with SARS-CoV-2 [9] were 2750 nM and 220 nM, respectively. For the same compound, the EC50 turned out to be 533 nM with SARS-CoV-2 [4] (Severe acute respiratory syndrome coronavirus 2, Vero, 24 h) and 272 nM with SARS-CoV-2 [5] (setting [10]). Moreover, the “dose reduction index (DRI)” value in the series on SARS-CoV-2 [4] (VERO-STAT1 KO cells at Fa 0.5) was determined as 2.35; with SARS-CoV-2 [5] (UNCN1T cells), 3.75.

The term IC50 denotes the concentration that gives 50% inhibition. A word on the inhibition: it is how much of the control response was suppressed.
